According to PubChem BioAssay (NCI):
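96-well plates; 48 h exposure; 5 concentrations. Endpoints by linear interpolation between flanking doses. Not reached: highest tested concentration assigned. GI50 is the concentration that inhibits growth by half. At the TGI there is no net growth.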

Columns and labels:
Test in all cases: NCI anticancer screen, dose series, 48 h
SK-OV-3 ovarian = test system: SK-OV-3 ovarian
U251 CNS = test system: U251 CNS
COLO 205 colon = test system: COLO 205 colon
DU-145 prostate = test system: DU-145 prostate
MDA-MB-435 = test system: MDA-MB-435
OVCAR-4 ovarian = test system: OVCAR-4 ovarian
SF-539 CNS = test system: SF-539 CNS
HCC-2998 colon = test system: HCC-2998 colon
NCI-H460 lung = test system: NCI-H460 lung
K-562 leukemia = test system: K-562 leukemia
RPMI-8226 leukemia = test system: RPMI-8226 leukemia
UACC-257 melanoma = test system: UACC-257 melanoma
MDA-MB-231 breast = test system: MDA-MB-231 breast
NCI-H226 lung = test system: NCI-H226 lung
NCI/ADR-RES ovarian = test system: NCI/ADR-RES ovarian
UO-31 renal = test system: UO-31 renal
PC-3 prostate = test system: PC-3 prostate
EKVX NSCLC = test system: EKVX NSCLC
HT29 colon = test system: HT29 colon
HCT-15 colon = test system: HCT-15 colon
SK-MEL-28 melanoma = test system: SK-MEL-28 melanoma
SK-MEL-5 melanoma = test system: SK-MEL-5 melanoma
HL-60(TB) leukemia = test system: HL-60(TB) leukemia
OVCAR-8 ovarian = test system: OVCAR-8 ovarian
SN12C renal = test system: SN12C renal
ACHN renal = test system: ACHN renal
CAKI-1 renal = test system: CAKI-1 renal
HOP-92 NSCLC = test system: HOP-92 NSCLC
MDA-N = test system: MDA-N
HCT-116 colon = test system: HCT-116 colon
SF-295 CNS = test system: SF-295 CNS
NCI-H23 lung = test system: NCI-H23 lung
KM12 colon = test system: KM12 colon
IGROV1 ovarian = test system: IGROV1 ovarian
HS 578T breast = test system: HS 578T breast
MCF7 breast = test system: MCF7 breast
SW-620 colon = test system: SW-620 colon
TK-10 renal = test system: TK-10 renal
RXF 393 renal = test system: RXF 393 renal
HOP-62 NSCLC = test system: HOP-62 NSCLC
SNB-75 CNS = test system: SNB-75 CNS
CCRF-CEM leukemia = test system: CCRF-CEM leukemia
786-0 renal = test system: 786-0 renal
MALME-3M melanoma = test system: MALME-3M melanoma
SF-268 CNS = test system: SF-268 CNS
A549 NSCLC = test system: A549 NSCLC
M14 melanoma = test system: M14 melanoma
LOX IMVI melanoma = test system: LOX IMVI melanoma
SNB-19 CNS = test system: SNB-19 CNS
OVCAR-5 ovarian = test system: OVCAR-5 ovarian
A498 renal = test system: A498 renal
MOLT-4 leukemia = test system: MOLT-4 leukemia
UACC-62 melanoma = test system: UACC-62 melanoma
OVCAR-3 ovarian = test system: OVCAR-3 ovarian
T-47D breast = test system: T-47D breast

S=C(S)NCCNC(=S)S.[Cu+2]
GI50 (SK-OV-3 ovarian): 8.24 µM | TGI (SK-OV-3 ovarian): 23.1 µM | GI50 (U251 CNS): > 100 µM | TGI (U251 CNS): > 100 µM | GI50 (COLO 205 colon): > 100 µM | TGI (COLO 205 colon): > 100 µM | GI50 (DU-145 prostate): > 100 µM | TGI (DU-145 prostate): > 100 µM | GI50 (MDA-MB-435): 29.7 µM | TGI (MDA-MB-435): 79.2 µM | GI50 (OVCAR-4 ovarian): 36.1 µM | TGI (OVCAR-4 ovarian): > 100 µM | GI50 (SF-539 CNS): > 100 µM | TGI (SF-539 CNS): > 100 µM | GI50 (HCC-2998 colon): 59.3 µM | TGI (HCC-2998 colon): > 100 µM | GI50 (NCI-H460 lung): 29.7 µM | TGI (NCI-H460 lung): 89.3 µM | GI50 (K-562 leukemia): > 100 µM | TGI (K-562 leukemia): > 100 µM | GI50 (RPMI-8226 leukemia): > 100 µM | TGI (RPMI-8226 leukemia): > 100 µM | GI50 (UACC-257 melanoma): > 100 µM | TGI (UACC-257 melanoma): > 100 µM | GI50 (MDA-MB-231 breast): > 100 µM | TGI (MDA-MB-231 breast): > 100 µM | GI50 (NCI-H226 lung): > 100 µM | TGI (NCI-H226 lung): > 100 µM | GI50 (NCI/ADR-RES ovarian): > 100 µM | TGI (NCI/ADR-RES ovarian): > 100 µM | GI50 (UO-31 renal): > 100 µM | TGI (UO-31 renal): > 100 µM | GI50 (PC-3 prostate): > 100 µM | TGI (PC-3 prostate): > 100 µM | GI50 (EKVX NSCLC): 70.1 µM | TGI (EKVX NSCLC): > 100 µM | GI50 (HT29 colon): > 100 µM | TGI (HT29 colon): > 100 µM | GI50 (HCT-15 colon): 51.6 µM | TGI (HCT-15 colon): > 100 µM | GI50 (SK-MEL-28 melanoma): > 100 µM | TGI (SK-MEL-28 melanoma): > 100 µM | GI50 (SK-MEL-5 melanoma): 25.8 µM | TGI (SK-MEL-5 melanoma): 58.5 µM | GI50 (HL-60(TB) leukemia): > 100 µM | TGI (HL-60(TB) leukemia): > 100 µM | GI50 (OVCAR-8 ovarian): > 100 µM | TGI (OVCAR-8 ovarian): > 100 µM | GI50 (SN12C renal): > 100 µM | TGI (SN12C renal): > 100 µM | GI50 (ACHN renal): > 100 µM | TGI (ACHN renal): > 100 µM | GI50 (CAKI-1 renal): > 100 µM | TGI (CAKI-1 renal): > 100 µM | GI50 (HOP-92 NSCLC): > 100 µM | TGI (HOP-92 NSCLC): > 100 µM | GI50 (MDA-N): 25.7 µM | TGI (MDA-N): 69.5 µM | GI50 (HCT-116 colon): > 100 µM | TGI (HCT-116 colon): > 100 µM | GI50 (SF-295 CNS): > 100 µM | TGI (SF-295 CNS): > 100 µM | GI50 (NCI-H23 lung): > 100 µM | TGI (NCI-H23 lung): > 100 µM | GI50 (KM12 colon): > 100 µM | TGI (KM12 colon): > 100 µM | GI50 (IGROV1 ovarian): 93.2 µM | TGI (IGROV1 ovarian): > 100 µM | GI50 (HS 578T breast): > 100 µM | TGI (HS 578T breast): > 100 µM | GI50 (MCF7 breast): 27.4 µM | TGI (MCF7 breast): 78.2 µM | GI50 (SW-620 colon): 88.6 µM | TGI (SW-620 colon): > 100 µM | GI50 (TK-10 renal): > 100 µM | TGI (TK-10 renal): > 100 µM | GI50 (RXF 393 renal): 36.1 µM | TGI (RXF 393 renal): > 100 µM | GI50 (HOP-62 NSCLC): 68.6 µM | TGI (HOP-62 NSCLC): > 100 µM | GI50 (SNB-75 CNS): > 100 µM | TGI (SNB-75 CNS): > 100 µM | GI50 (CCRF-CEM leukemia): > 100 µM | TGI (CCRF-CEM leukemia): > 100 µM | GI50 (786-0 renal): 63.2 µM | TGI (786-0 renal): > 100 µM | GI50 (MALME-3M melanoma): > 100 µM | TGI (MALME-3M melanoma): > 100 µM | GI50 (SF-268 CNS): > 100 µM | TGI (SF-268 CNS): > 100 µM | GI50 (A549 NSCLC): 56.6 µM | TGI (A549 NSCLC): > 100 µM | GI50 (M14 melanoma): > 100 µM | TGI (M14 melanoma): > 100 µM | GI50 (LOX IMVI melanoma): 31.8 µM | TGI (LOX IMVI melanoma): > 100 µM | GI50 (SNB-19 CNS): > 100 µM | TGI (SNB-19 CNS): > 100 µM | GI50 (OVCAR-5 ovarian): 52.4 µM | TGI (OVCAR-5 ovarian): > 100 µM | GI50 (A498 renal): 57.6 µM | TGI (A498 renal): > 100 µM | GI50 (MOLT-4 leukemia): > 100 µM | TGI (MOLT-4 leukemia): > 100 µM | GI50 (UACC-62 melanoma): 33.9 µM | TGI (UACC-62 melanoma): > 100 µM | GI50 (OVCAR-3 ovarian): > 100 µM | TGI (OVCAR-3 ovarian): > 100 µM | GI50 (T-47D breast): > 100 µM | TGI (T-47D breast): > 100 µM
